Source: ChEMBL document CHEMBL3991601, “The target landscape of clinical kinase drugs” (Science, 2017)
Activity calls are given as the source filed them. Rule as the data show it, for most assays here: actives have a measured Kd and inactives only a lower limit.

Target: T1, Cyclin-G-associated kinase (Homo sapiens, UniProt O14976)
T1 sequence (O14976 whole entry): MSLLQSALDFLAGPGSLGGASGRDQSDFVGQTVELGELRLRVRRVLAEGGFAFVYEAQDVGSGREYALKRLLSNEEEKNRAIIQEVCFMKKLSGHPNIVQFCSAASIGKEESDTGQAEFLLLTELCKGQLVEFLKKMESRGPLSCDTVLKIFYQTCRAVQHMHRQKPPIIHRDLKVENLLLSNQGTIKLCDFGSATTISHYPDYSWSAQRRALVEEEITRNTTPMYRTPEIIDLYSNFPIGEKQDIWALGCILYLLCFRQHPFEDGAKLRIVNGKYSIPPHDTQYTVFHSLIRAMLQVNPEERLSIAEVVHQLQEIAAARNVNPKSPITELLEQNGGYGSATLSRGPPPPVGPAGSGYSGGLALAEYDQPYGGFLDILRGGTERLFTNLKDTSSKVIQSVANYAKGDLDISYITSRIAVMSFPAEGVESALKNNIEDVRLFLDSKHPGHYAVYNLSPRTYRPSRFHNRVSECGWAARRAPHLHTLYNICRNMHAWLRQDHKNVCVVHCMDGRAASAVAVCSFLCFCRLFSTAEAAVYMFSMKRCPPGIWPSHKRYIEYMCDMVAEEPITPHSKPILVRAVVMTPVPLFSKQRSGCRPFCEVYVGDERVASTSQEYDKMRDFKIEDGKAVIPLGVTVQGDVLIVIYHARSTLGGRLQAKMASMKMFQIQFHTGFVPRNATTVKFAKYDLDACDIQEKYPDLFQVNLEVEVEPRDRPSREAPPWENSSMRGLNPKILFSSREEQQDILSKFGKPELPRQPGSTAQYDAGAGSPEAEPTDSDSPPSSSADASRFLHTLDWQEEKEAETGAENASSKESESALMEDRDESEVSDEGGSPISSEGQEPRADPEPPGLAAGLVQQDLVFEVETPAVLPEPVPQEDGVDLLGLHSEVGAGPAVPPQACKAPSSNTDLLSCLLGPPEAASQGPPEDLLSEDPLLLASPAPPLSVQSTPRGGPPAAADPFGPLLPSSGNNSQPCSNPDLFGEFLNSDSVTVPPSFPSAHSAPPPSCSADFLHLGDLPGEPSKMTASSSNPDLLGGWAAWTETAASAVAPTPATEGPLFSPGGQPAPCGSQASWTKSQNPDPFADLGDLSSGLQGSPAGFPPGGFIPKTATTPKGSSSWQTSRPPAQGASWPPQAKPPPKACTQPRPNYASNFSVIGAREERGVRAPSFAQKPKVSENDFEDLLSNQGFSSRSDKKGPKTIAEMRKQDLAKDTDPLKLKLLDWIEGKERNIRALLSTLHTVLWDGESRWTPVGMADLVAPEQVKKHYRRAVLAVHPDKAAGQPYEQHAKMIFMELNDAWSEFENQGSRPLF
Also: in the data inactive means no Kd found up to 30 µM.

Compound	Kd
Cc1ccc(-n2nc(C(C)(C)C)cc2NC(=O)NCc2cc(F)ccc2Oc2ccc3c(cnn3CCO)c2)cc1 [PEXMETINIB]	> 30 µM (inactive)
OCCn1cc(-c2cnc3nnn(Cc4ccc5ncccc5c4)c3n2)cn1 [PF-04217903]	> 30 µM (inactive)
CNC(=O)c1ccc(C)c(-n2c(C)cc(OCc3ccc(F)cc3F)c(Br)c2=O)c1 [PH-797804]	> 30 µM (inactive)
C=CC(=O)N1CCC(Oc2cc3c(Nc4ccc(Cl)c(Cl)c4F)ncnc3cc2OC)CC1 [POZIOTINIB]	> 30 µM (inactive)
CNC(=O)c1cc(Oc2ccc(NC(=O)Nc3ccc(Cl)c(C(F)(F)F)c3)c(F)c2)ccn1 [REGORAFENIB]	> 30 µM (inactive)
CN(C)C(=O)c1cc2cnc(Nc3ccc(N4CCNCC4)cn3)nc2n1C1CCCC1 [RIBOCICLIB]	0.658 µM (active)
COc1cc(OC)c(/C=C/S(=O)(=O)Cc2ccc(OC)c(NCC(=O)O)c2)c(OC)c1 [RIGOSERTIB]	> 30 µM (inactive)
CNC(=O)CN1CCC(Oc2cc3c(Nc4cccc(Cl)c4F)ncnc3cc2OC)CC1 [SAPITINIB]	0.176 µM (active)
C[C@@H](c1ccc2nccn2c1)n1nnc2ncc(-c3cnn(C)c3)nc21 [SAVOLITINIB]	> 30 µM (inactive)
CN1CCC(CNc2ccc3ncc(-c4cccc(OC(F)(F)F)c4)n3n2)CC1 [SGI-1776]	8.63 µM (active)

Target: Tyrosine-protein kinase CSK (Homo sapiens, UniProt P41240)
Sequence (P41240 whole entry): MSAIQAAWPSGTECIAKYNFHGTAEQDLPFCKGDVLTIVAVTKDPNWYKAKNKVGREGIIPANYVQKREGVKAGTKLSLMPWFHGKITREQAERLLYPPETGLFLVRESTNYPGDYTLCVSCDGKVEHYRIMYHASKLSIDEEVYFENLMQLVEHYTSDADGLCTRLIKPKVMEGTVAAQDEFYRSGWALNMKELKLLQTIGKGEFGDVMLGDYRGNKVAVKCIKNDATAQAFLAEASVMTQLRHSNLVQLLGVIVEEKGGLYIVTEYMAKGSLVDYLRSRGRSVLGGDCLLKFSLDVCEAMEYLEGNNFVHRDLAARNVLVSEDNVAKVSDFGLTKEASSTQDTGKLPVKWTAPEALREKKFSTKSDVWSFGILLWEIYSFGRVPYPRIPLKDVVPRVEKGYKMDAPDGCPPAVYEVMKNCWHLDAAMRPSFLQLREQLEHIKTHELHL

Compound	Kd
Cc1ccc(-n2nc(C(C)(C)C)cc2NC(=O)NCc2cc(F)ccc2Oc2ccc3c(cnn3CCO)c2)cc1 [PEXMETINIB]	> 30 µM (inactive)
OCCn1cc(-c2cnc3nnn(Cc4ccc5ncccc5c4)c3n2)cn1 [PF-04217903]	> 30 µM (inactive)
CNC(=O)c1ccc(C)c(-n2c(C)cc(OCc3ccc(F)cc3F)c(Br)c2=O)c1 [PH-797804]	> 30 µM (inactive)
C=CC(=O)N1CCC(Oc2cc3c(Nc4ccc(Cl)c(Cl)c4F)ncnc3cc2OC)CC1 [POZIOTINIB]	> 30 µM (inactive)
CNC(=O)c1cc(Oc2ccc(NC(=O)Nc3ccc(Cl)c(C(F)(F)F)c3)c(F)c2)ccn1 [REGORAFENIB]	> 30 µM (inactive)
CN(C)C(=O)c1cc2cnc(Nc3ccc(N4CCNCC4)cn3)nc2n1C1CCCC1 [RIBOCICLIB]	> 30 µM (inactive)
COc1cc(OC)c(/C=C/S(=O)(=O)Cc2ccc(OC)c(NCC(=O)O)c2)c(OC)c1 [RIGOSERTIB]	> 30 µM (inactive)
CNC(=O)CN1CCC(Oc2cc3c(Nc4cccc(Cl)c4F)ncnc3cc2OC)CC1 [SAPITINIB]	> 30 µM (inactive)
C[C@@H](c1ccc2nccn2c1)n1nnc2ncc(-c3cnn(C)c3)nc21 [SAVOLITINIB]	> 30 µM (inactive)
CN1CCC(CNc2ccc3ncc(-c4cccc(OC(F)(F)F)c4)n3n2)CC1 [SGI-1776]	> 30 µM (inactive)

Target: T2, AarF domain-containing protein kinase 1 (Homo sapiens, UniProt Q86TW2)
T2 sequence (Q86TW2 whole entry): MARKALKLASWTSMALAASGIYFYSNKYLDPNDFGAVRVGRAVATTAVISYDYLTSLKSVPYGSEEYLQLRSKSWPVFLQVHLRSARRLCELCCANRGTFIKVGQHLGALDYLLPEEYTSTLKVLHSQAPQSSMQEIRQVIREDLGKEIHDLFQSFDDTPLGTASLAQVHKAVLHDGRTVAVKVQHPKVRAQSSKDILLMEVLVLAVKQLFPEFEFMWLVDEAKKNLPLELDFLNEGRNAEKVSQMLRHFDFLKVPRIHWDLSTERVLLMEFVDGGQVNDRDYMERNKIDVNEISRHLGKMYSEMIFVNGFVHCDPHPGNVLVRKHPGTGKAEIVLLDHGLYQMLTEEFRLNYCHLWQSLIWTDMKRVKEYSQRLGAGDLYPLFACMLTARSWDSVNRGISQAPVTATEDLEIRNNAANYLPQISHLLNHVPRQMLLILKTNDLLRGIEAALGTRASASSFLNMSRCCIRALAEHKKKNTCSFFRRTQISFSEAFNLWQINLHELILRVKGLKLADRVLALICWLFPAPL

Compound	Kd
Cc1ccc(-n2nc(C(C)(C)C)cc2NC(=O)NCc2cc(F)ccc2Oc2ccc3c(cnn3CCO)c2)cc1 [PEXMETINIB]	> 30 µM (inactive)
OCCn1cc(-c2cnc3nnn(Cc4ccc5ncccc5c4)c3n2)cn1 [PF-04217903]	> 30 µM (inactive)
CNC(=O)c1ccc(C)c(-n2c(C)cc(OCc3ccc(F)cc3F)c(Br)c2=O)c1 [PH-797804]	> 30 µM (inactive)
C=CC(=O)N1CCC(Oc2cc3c(Nc4ccc(Cl)c(Cl)c4F)ncnc3cc2OC)CC1 [POZIOTINIB]	> 30 µM (inactive)
CNC(=O)c1cc(Oc2ccc(NC(=O)Nc3ccc(Cl)c(C(F)(F)F)c3)c(F)c2)ccn1 [REGORAFENIB]	> 30 µM (inactive)
CN(C)C(=O)c1cc2cnc(Nc3ccc(N4CCNCC4)cn3)nc2n1C1CCCC1 [RIBOCICLIB]	> 30 µM (inactive)
COc1cc(OC)c(/C=C/S(=O)(=O)Cc2ccc(OC)c(NCC(=O)O)c2)c(OC)c1 [RIGOSERTIB]	> 30 µM (inactive)
CNC(=O)CN1CCC(Oc2cc3c(Nc4cccc(Cl)c4F)ncnc3cc2OC)CC1 [SAPITINIB]	> 30 µM (inactive)
C[C@@H](c1ccc2nccn2c1)n1nnc2ncc(-c3cnn(C)c3)nc21 [SAVOLITINIB]	> 30 µM (inactive)
CN1CCC(CNc2ccc3ncc(-c4cccc(OC(F)(F)F)c4)n3n2)CC1 [SGI-1776]	> 30 µM (inactive)

Target: Cyclin-dependent kinase 13 (Homo sapiens, UniProt Q14004)
Sequence (Q14004 whole entry): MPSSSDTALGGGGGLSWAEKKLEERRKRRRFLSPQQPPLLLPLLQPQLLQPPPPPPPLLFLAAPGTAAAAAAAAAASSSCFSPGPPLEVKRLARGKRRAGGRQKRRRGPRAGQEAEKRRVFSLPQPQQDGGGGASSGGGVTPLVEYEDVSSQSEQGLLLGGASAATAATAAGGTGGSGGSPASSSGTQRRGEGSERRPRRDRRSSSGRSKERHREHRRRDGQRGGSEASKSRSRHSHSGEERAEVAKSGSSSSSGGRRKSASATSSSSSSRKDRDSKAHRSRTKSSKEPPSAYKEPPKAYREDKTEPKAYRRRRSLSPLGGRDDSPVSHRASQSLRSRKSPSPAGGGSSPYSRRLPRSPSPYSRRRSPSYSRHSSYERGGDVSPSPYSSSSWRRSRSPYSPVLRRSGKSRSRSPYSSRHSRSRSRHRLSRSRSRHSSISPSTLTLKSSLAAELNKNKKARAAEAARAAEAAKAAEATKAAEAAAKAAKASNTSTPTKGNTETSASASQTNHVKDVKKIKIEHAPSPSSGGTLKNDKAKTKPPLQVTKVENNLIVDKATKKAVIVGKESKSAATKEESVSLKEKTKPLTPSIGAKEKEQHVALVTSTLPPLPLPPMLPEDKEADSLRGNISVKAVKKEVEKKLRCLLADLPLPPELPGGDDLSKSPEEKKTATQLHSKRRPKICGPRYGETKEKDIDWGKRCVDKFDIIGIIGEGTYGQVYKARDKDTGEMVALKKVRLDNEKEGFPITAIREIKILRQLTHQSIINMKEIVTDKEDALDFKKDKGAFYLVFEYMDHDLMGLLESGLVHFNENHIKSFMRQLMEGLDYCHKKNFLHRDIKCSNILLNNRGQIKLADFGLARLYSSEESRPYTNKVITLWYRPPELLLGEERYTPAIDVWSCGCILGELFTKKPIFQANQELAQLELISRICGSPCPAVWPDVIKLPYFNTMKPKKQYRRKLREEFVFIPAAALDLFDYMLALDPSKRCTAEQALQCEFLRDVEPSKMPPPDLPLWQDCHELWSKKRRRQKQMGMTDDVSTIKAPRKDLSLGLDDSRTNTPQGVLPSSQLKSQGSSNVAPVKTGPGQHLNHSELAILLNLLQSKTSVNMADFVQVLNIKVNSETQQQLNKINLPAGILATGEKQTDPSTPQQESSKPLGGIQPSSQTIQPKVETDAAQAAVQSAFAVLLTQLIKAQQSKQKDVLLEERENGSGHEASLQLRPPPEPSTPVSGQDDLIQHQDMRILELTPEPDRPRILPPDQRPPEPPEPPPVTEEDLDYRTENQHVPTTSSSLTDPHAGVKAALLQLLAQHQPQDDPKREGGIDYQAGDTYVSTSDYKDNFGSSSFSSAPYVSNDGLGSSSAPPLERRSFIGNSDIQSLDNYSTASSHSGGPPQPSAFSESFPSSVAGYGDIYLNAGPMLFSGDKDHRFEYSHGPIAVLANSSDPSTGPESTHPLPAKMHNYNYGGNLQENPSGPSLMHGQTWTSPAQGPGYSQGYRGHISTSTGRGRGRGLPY

Compound	Kd
Cc1ccc(-n2nc(C(C)(C)C)cc2NC(=O)NCc2cc(F)ccc2Oc2ccc3c(cnn3CCO)c2)cc1 [PEXMETINIB]	> 30 µM (inactive)
OCCn1cc(-c2cnc3nnn(Cc4ccc5ncccc5c4)c3n2)cn1 [PF-04217903]	> 30 µM (inactive)
CNC(=O)c1ccc(C)c(-n2c(C)cc(OCc3ccc(F)cc3F)c(Br)c2=O)c1 [PH-797804]	> 30 µM (inactive)
C=CC(=O)N1CCC(Oc2cc3c(Nc4ccc(Cl)c(Cl)c4F)ncnc3cc2OC)CC1 [POZIOTINIB]	> 30 µM (inactive)
CNC(=O)c1cc(Oc2ccc(NC(=O)Nc3ccc(Cl)c(C(F)(F)F)c3)c(F)c2)ccn1 [REGORAFENIB]	> 30 µM (inactive)
CN(C)C(=O)c1cc2cnc(Nc3ccc(N4CCNCC4)cn3)nc2n1C1CCCC1 [RIBOCICLIB]	> 30 µM (inactive)
COc1cc(OC)c(/C=C/S(=O)(=O)Cc2ccc(OC)c(NCC(=O)O)c2)c(OC)c1 [RIGOSERTIB]	> 30 µM (inactive)
CNC(=O)CN1CCC(Oc2cc3c(Nc4cccc(Cl)c4F)ncnc3cc2OC)CC1 [SAPITINIB]	> 30 µM (inactive)
C[C@@H](c1ccc2nccn2c1)n1nnc2ncc(-c3cnn(C)c3)nc21 [SAVOLITINIB]	> 30 µM (inactive)
CN1CCC(CNc2ccc3ncc(-c4cccc(OC(F)(F)F)c4)n3n2)CC1 [SGI-1776]	> 30 µM (inactive)

Target: T3, Bifunctional phosphoribosylaminoimidazole carboxylase/phosphoribosylaminoimidazole succinocarboxamide synthetase (Homo sapiens, UniProt P22234)
T3 sequence (P22234 whole entry): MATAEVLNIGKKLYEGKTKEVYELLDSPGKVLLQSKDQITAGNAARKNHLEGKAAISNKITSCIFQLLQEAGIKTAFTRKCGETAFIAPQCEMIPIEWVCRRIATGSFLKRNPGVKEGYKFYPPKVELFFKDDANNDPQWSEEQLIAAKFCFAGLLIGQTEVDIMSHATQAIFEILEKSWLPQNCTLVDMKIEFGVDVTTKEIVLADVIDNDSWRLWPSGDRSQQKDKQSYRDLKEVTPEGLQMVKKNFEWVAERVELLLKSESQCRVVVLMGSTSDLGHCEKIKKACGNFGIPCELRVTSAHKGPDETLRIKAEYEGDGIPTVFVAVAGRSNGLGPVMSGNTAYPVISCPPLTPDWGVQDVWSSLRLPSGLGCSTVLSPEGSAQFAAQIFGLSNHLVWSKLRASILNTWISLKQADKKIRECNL

Compound	Kd
Cc1ccc(-n2nc(C(C)(C)C)cc2NC(=O)NCc2cc(F)ccc2Oc2ccc3c(cnn3CCO)c2)cc1 [PEXMETINIB]	> 30 µM (inactive)
OCCn1cc(-c2cnc3nnn(Cc4ccc5ncccc5c4)c3n2)cn1 [PF-04217903]	> 30 µM (inactive)
CNC(=O)c1ccc(C)c(-n2c(C)cc(OCc3ccc(F)cc3F)c(Br)c2=O)c1 [PH-797804]	> 30 µM (inactive)
C=CC(=O)N1CCC(Oc2cc3c(Nc4ccc(Cl)c(Cl)c4F)ncnc3cc2OC)CC1 [POZIOTINIB]	> 30 µM (inactive)
CNC(=O)c1cc(Oc2ccc(NC(=O)Nc3ccc(Cl)c(C(F)(F)F)c3)c(F)c2)ccn1 [REGORAFENIB]	> 30 µM (inactive)
CN(C)C(=O)c1cc2cnc(Nc3ccc(N4CCNCC4)cn3)nc2n1C1CCCC1 [RIBOCICLIB]	> 30 µM (inactive)
COc1cc(OC)c(/C=C/S(=O)(=O)Cc2ccc(OC)c(NCC(=O)O)c2)c(OC)c1 [RIGOSERTIB]	> 30 µM (inactive)
CNC(=O)CN1CCC(Oc2cc3c(Nc4cccc(Cl)c4F)ncnc3cc2OC)CC1 [SAPITINIB]	> 30 µM (inactive)
C[C@@H](c1ccc2nccn2c1)n1nnc2ncc(-c3cnn(C)c3)nc21 [SAVOLITINIB]	> 30 µM (inactive)
CN1CCC(CNc2ccc3ncc(-c4cccc(OC(F)(F)F)c4)n3n2)CC1 [SGI-1776]	> 30 µM (inactive)

Target: Protein kinase C beta type (Homo sapiens, UniProt P05771)
Sequence (P05771 whole entry): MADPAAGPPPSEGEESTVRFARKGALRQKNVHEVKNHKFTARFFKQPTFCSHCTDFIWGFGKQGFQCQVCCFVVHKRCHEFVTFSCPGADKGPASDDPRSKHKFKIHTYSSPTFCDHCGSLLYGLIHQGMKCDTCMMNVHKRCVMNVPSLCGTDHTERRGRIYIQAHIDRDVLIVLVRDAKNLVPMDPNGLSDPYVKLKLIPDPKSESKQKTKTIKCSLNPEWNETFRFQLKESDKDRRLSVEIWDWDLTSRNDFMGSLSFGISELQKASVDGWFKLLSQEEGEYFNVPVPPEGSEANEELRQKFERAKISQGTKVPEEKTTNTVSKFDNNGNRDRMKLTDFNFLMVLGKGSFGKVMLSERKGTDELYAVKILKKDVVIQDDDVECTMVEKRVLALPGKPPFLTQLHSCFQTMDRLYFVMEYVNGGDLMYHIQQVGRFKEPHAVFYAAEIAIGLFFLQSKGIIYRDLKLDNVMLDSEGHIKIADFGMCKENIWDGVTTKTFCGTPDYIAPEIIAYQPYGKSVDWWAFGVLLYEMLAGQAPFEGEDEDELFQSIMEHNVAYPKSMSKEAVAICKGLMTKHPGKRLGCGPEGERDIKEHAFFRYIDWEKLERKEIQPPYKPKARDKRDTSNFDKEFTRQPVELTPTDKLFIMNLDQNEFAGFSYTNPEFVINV

Compound	Kd
Cc1ccc(-n2nc(C(C)(C)C)cc2NC(=O)NCc2cc(F)ccc2Oc2ccc3c(cnn3CCO)c2)cc1 [PEXMETINIB]	> 30 µM (inactive)
OCCn1cc(-c2cnc3nnn(Cc4ccc5ncccc5c4)c3n2)cn1 [PF-04217903]	> 30 µM (inactive)
CNC(=O)c1ccc(C)c(-n2c(C)cc(OCc3ccc(F)cc3F)c(Br)c2=O)c1 [PH-797804]	> 30 µM (inactive)
C=CC(=O)N1CCC(Oc2cc3c(Nc4ccc(Cl)c(Cl)c4F)ncnc3cc2OC)CC1 [POZIOTINIB]	> 30 µM (inactive)
CNC(=O)c1cc(Oc2ccc(NC(=O)Nc3ccc(Cl)c(C(F)(F)F)c3)c(F)c2)ccn1 [REGORAFENIB]	> 30 µM (inactive)
CN(C)C(=O)c1cc2cnc(Nc3ccc(N4CCNCC4)cn3)nc2n1C1CCCC1 [RIBOCICLIB]	> 30 µM (inactive)
COc1cc(OC)c(/C=C/S(=O)(=O)Cc2ccc(OC)c(NCC(=O)O)c2)c(OC)c1 [RIGOSERTIB]	> 30 µM (inactive)
CNC(=O)CN1CCC(Oc2cc3c(Nc4cccc(Cl)c4F)ncnc3cc2OC)CC1 [SAPITINIB]	> 30 µM (inactive)
C[C@@H](c1ccc2nccn2c1)n1nnc2ncc(-c3cnn(C)c3)nc21 [SAVOLITINIB]	> 30 µM (inactive)
CN1CCC(CNc2ccc3ncc(-c4cccc(OC(F)(F)F)c4)n3n2)CC1 [SGI-1776]	> 30 µM (inactive)
